Test results published in paper PMC8333425, “Discovery of a dual Ras and ARF6 inhibitor from a GPCR endocytosis screen” (Nature Communications, 2021).
“And” between values parts separate entries of the source, which are not always exact repeats. Identical values can stand only once.

Key:
A549 cells = assay: Cell viability assay (MTT), A549; assay type: cell-based, human
Procedure: MDA-MB-231 breast cancer cells and A549 lung carcinomas (1500 cells in 150 μl/well) were seeded overnight on a clear 96-well plate. Twenty-four hours later, the cells were treated with 0.1% DMSO, or different concentrations of Rasarfin (as indicated), or 10 µM of 21.4, 21.8 (MDA-MB-231 breast cancer cells) or Doxorubicin for the indicated times at 37 °C. At each time point, 10 μl of 5 mg/ml MTT was added to each well and the plates were incubated for an additional 4 h at 37 °C. The absorbance at 590 nm was measured by plate reader. Experiments were done in triplicate and repeated three times.

[1] = system: β-arrestin1 recruitment to AT1R; assay: BRET recruitment of β-arrestin1 to AT1R; assay type: cell-based, human; settings: for AngII-promoted BRET, β-arrestin1 (Barr1) recruitment to AT1R: Comp 21 50 μM, individual experiments
Procedure: HEK293SL cells were seeded at a density of 7.5 × 10^5 cells per 100-mm dish and 24 h later, transiently transfected as such. For receptor internalization experiments, cells were transfected with 0.12 μg AT1R-RlucII, B2R-RlucII, or β2AR-RlucII and 0.48 μg of either rGFP-CAAX (to assess removal from the PM) or rGFP-FYVE (to assess accumulation in the endosomes). For β-arrestin recruitment assays, cells were transfected with 0.48 μg of receptor-YFP along with 0.12 μg of β-arrestin-RlucII. For β-arrestin/AP-2 binding experiments, cells were transfected with 1 μg Flag-AT1R, 1 μg β2-Adaptin-YFP, and 0.12 μg β-arrestin2-RlucII. For G protein activation, cells were transfected with 3 μg of sp-Flag-AT1R along with either 4.5 μg of the Gαq-polycistronic BRET sensor or 0.24 μg of the Gαi3-RlucII and 0.6 μg of GFP10-Gγ2 and Gβ1 sensors or 0.12 μg PKN-RBD-RlucII and 0.48 μg of rGFP-CAAX. For PKC activation, cells were transfected with 3 μg of sp-Flag-AT1R and 0.18 μg of the PKC sensor. For GTPase activation experiments, cells were transfected with 1 μg Flag-AT1R, 0.48 μg of rGFP-CAAX, and either 0.12 μg of GGA3-PBD-RlucII, PAK-CRIB-RlucII or Raf-RBD-RlucII. For biosensor validation experiments, cells were additionally transfected with 500 ng Flag-K-Ras-WT, Flag-K-Ras-G12V, Flag-K-Ras-SOS-CAAX, HA-ARF6-WT, HA-ARF6-T27N, Myc-Rac1-WT, Myc-Rac1-Q61L or Myc-Rac1-T17N. For PI3K/Akt activation experiments, cells were transfected with 0.48 μg of rGFP-CAAX and 0.12 μg of Akt (PH)-RlucII. After 18 h of transfection, the media was replaced and cells were divided for subsequent experiments. Cells were detached and seeded onto poly-L-ornithine-coated 96-well flat white bottom plates (BrandTech Scientific) at a density of 2.5 × 10^4 cells per well in media. The next day, cells were washed once with Tyrode’s buffer (140 mM NaCl, 2.7 mM KCl, 1 mM CaCl2, 12 mM NaHCO3, 5.6 mM D-glucose, 0.5 mM MgCl2, 0.37 mM NaH2PO4, 25 mM HEPES, pH 7.4) and left in Tyrode’s buffer. For kinetics of β-arrestin recruitment or β-arrestin binding to receptor and AP-2 experiments, cells were serum starved for 30 min, pretreated with 21 (50 µM) or Barbadin (100 µM) for 30 min, stimulated with 100 nM AngII or 1 µM BK and BRET signals were monitored at indicated times using a Victor X Light plate reader (PerkinElmer). Coelenterazine H (final concentration of 5 µM) was added 3–5 min prior to BRET measurements. Filter set was 460/80 nm and 535/30 nm for detecting the RlucII Renilla luciferase (donor) and YFP (acceptor) light emissions, respectively. The BRET ratio was determined by calculating the ratio of the light emitted by YFP over the light emitted by the RlucII. For G protein activation, cells were serum starved, pretreated with compounds for 30 min, stimulated with 100 nM AngII for 2 min (Gαq, Gαi3, and Rho sensors) or 5 min (PKC sensor). For the kinetics of GTPase and PI3K/Akt activation, cells were serum starved, pretreated with 21 (50 µM) or Wortmannin (200 nM) for 30 min, stimulated with ligand (100 nM AngII or 100 ng/ml EGF) and BRET signals were monitored at indicated times. For concentration-response curves, cells were serum-starved, pretreated with various concentrations of compounds for 30 min and stimulated with ligand (100 nM AngII, 1 µM BK, 10 µM Isoproterenol (Iso) or 100 ng/ml EGF) in Tyrode’s buffer for 30 min for receptor internalization, 10 min for ARF6, 2 min for Rac and Rho activation and 5 min for Ras activation and PI3K/Akt activation. BRET signals were monitored using a Synergy2 (BioTek) microplate reader and coelenterazine 400a (final concentrations of 5 µM) added 3–5 min prior to BRET measurements. Filter set was 410/80 nm and 515/30 nm for detecting the RlucII Renilla luciferase (donor) and rGFP/GFP10 (acceptor) light emissions, respectively. The BRET ratio was determined by calculating the ratio of the light emitted by rGFP/GFP10 over the light emitted by the RlucII.

## CC(C)C(=O)N1CCN(c2ccc(NC(=O)c3cc4ccccc4o3)cc2Cl)CC1 [Compound 21]
A549 cells; 10 µM of Rasarfin
  A549 cell viability (MTT), compared with MDA-MB-231 cells: more important cell viability effects
A549 cells; Rasarfin 0.5, 24h
  cell viability (MTT signal): 0.2876 and 0.2844 and 0.2473 and 0.4073 and 0.3734 and 0.2713
A549 cells; Rasarfin 1, 24h
  cell viability (MTT signal): 0.2899 and 0.2749 and 0.2483 and 0.4128 and 0.3694 and 0.3709
A549 cells; Rasarfin 2, 24h
  cell viability (MTT signal): 0.2852 and 0.2865 and 0.2518 and 0.3946 and 0.3796 and 0.386
A549 cells; Rasarfin 5, 24h
  cell viability (MTT signal): 0.2638 and 0.2592 and 0.2504 and 0.3187 and 0.2743 and 0.3116
A549 cells; Rasarfin 10, 24h
  cell viability (MTT signal): 0.2447 and 0.2619 and 0.2276 and 0.2701 and 0.2102 and 0.246
A549 cells; Rasarfin 10, 72h
  cell viability (MTT signal): 0.3944 and 0.2496 and 0.4081 and 0.2999 and 0.3697 and 0.3945
[1]; 50 μM
  β-arrestin1 recruitment to AT1R at the PM: did not preclude
[1]; time 0 min
  AngII-promoted BRET, β-arrestin1 (Barr1) recruitment to AT1R: 0
[1]; time 5 min
  AngII-promoted BRET, β-arrestin1 (Barr1) recruitment to AT1R: 0.07621 and 0.08371 and 0.04185
[1]; time 10 min
  AngII-promoted BRET, β-arrestin1 (Barr1) recruitment to AT1R: 0.1164 and 0.1114 and 0.05569
[1]; time 15 min
  AngII-promoted BRET, β-arrestin1 (Barr1) recruitment to AT1R: 0.1198 and 0.1209 and 0.06044
[1]; time 30 min
  AngII-promoted BRET, β-arrestin1 (Barr1) recruitment to AT1R: 0.1393 and 0.143 and 0.07152
[1]; time 60 min
  AngII-promoted BRET, β-arrestin1 (Barr1) recruitment to AT1R: 0.1361 and 0.1426 and 0.1043
